Results on 15 compounds are retold here after ChEMBL document CHEMBL1201862, “PubChem BioAssay data set” (2004).

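Compound exposure: 48 hours, 5 concentrations, 96-well plates. GI50 marks 50% less growth.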 Activity calls are given as the source filed them. Rule as the data show it: active = GI50 up to about 1.1 µM and inactive = higher.

Among the test systems are NCI-H226; SNB-19; SK-MEL-28; OVCAR-4; SK-OV-3; HCT-15; SK-MEL-5; HOP-92; HCT-116; SF-268; K562; 786-0; SF-539; UACC-257; OVCAR-8.
Common to all, as to experiment: DTP human tumour cell line panel, 48 h

By GI50 is commonly meant the concentration giving 50% growth inhibition. `COC1CCCc2c(OC(C)=O)ccc(OC(C)=O)c21` (configuration not stated): the GI50 with NCI-H226 is > 100 µM (inactive); with SNB-19 it was > 100 µM (inactive); in the test on SK-MEL-28, > 100 µM (inactive); in the test on OVCAR-4, 35 µM (inactive); in the test on SK-OV-3, > 100 µM (inactive); with HCT-15 it was greater than 100 µM. For the same compound, the GI50 in the test with SK-MEL-5 was > 100 µM (inactive); in the test with HOP-92, 19.6 µM (inactive); with HCT-116, > 100 µM (inactive); in the test on SF-268 it was > 100 µM (inactive); with K562, > 100 µM (inactive); in the test on 786-0 it was > 100 µM (inactive).

Take `CN(C)CC1CCCC/C1=N/OC(=O)c1ccc(Cl)c(Cl)c1` (configuration not stated): the GI50 in the test with NCI-H226 is > 100 µM (inactive); in the test with SF-539, > 100 µM (inactive); in the test with SK-MEL-28 it was > 100 µM (inactive); with OVCAR-4, > 100 µM (inactive); in the test with SK-OV-3, > 100 µM (inactive); in the test on HCT-15 it was greater than 100 µM. Further, the GI50 in the test on SK-MEL-5 is > 100 µM (inactive); in the test with UACC-257, > 100 µM (inactive); in the test with HOP-92, 66.5 µM (inactive); in the test on HCT-116, > 100 µM (inactive); in the test on SF-268, > 100 µM (inactive); in the test with K562, > 100 µM (inactive). Moreover, the GI50 in the test with 786-0 and in the test with OVCAR-8 was > 100 µM (inactive) throughout.

For `C=C1C(=O)O[C@H]2[C@H]1[C@H](OC(=O)/C(C)=C\C)CC(=C)[C@@H]1[C@H](O)[C@H]3O[C@@]3(C)[C@@]12O` [EUPATUNDIN], the GI50 in the test on SNB-19 was > 100 µM (inactive); in the test with SF-539, > 100 µM (inactive); with SK-MEL-28, > 100 µM (inactive); in the test on OVCAR-4 it was > 100 µM (inactive); with SK-OV-3 it was > 100 µM (inactive); in the test on HCT-15 it was greater than 100 µM. Further, the GI50 in the test on SK-MEL-5, with HOP-92, in the test on HCT-116, in the test with SF-268, with K562 and in the test on 786-0 was > 100 µM (inactive) each time. Moreover, in the test on OVCAR-8, the GI50 was > 100 µM (inactive).

For the compound `C=C[C@@]1(C)CCC2(O)C(CCC3C2(C)CCC[C@@]3(C)COC(=O)CC(=O)OC)C1` (some centres not stated), the GI50 was 26.2 µM (inactive) in the test on NCI-H226; 31.6 µM (inactive) in the test on SNB-19; 19.6 µM (inactive) in the test with SF-539; 17 µM (inactive) in the test on SK-MEL-28; 17.5 µM (inactive) with OVCAR-4; > 100 µM (inactive) with SK-OV-3. The GI50 with HCT-15 is 18.4 µM; in the test with SK-MEL-5, 18 µM (inactive); in the test with UACC-257 it was 20.2 µM (inactive); in the test with HCT-116 it was 18 µM (inactive); with SF-268, 22.5 µM (inactive); in the test on K562, 22.4 µM (inactive). The GI50 in the test on 786-0 was 35.6 µM (inactive); in the test with OVCAR-8, 23.1 µM (inactive).

On to `CN(C)CCC(CCN(C)C)=NO`, for which the GI50 is > 100 µM (inactive) in the test with SNB-19; > 100 µM (inactive) in the test with SF-539; > 100 µM (inactive) with SK-MEL-28; > 100 µM (inactive) in the test with OVCAR-4; > 100 µM (inactive) with SK-OV-3; greater than 100 µM in the test with HCT-15. For the same compound, the GI50 in the test with SK-MEL-5, in the test with UACC-257, in the test with HCT-116, in the test on SF-268, with K562 and with 786-0 was > 100 µM (inactive) each time. Further, the GI50 in the test with OVCAR-8 was > 100 µM (inactive).

As to `CCCCCCCCC(=O)CCCCCCCCC(=O)O`, the GI50 in the test on NCI-H226 is 27.2 µM (inactive); with SNB-19 it was 61.1 µM (inactive); in the test with SF-539, 19.7 µM (inactive); in the test with SK-MEL-28, 36.1 µM (inactive); in the test on OVCAR-4, 50.2 µM (inactive); in the test on SK-OV-3 it was > 100 µM (inactive). For the same compound, the GI50 in the test on SK-MEL-5 is 15.5 µM (inactive); in the test on UACC-257 it was > 100 µM (inactive); with HOP-92, 18.9 µM (inactive); in the test with HCT-116, 21.6 µM (inactive); in the test on SF-268, 23.9 µM (inactive); in the test on K562, 18.9 µM (inactive). Also, the GI50 with 786-0 was 22.9 µM (inactive); in the test on OVCAR-8 it was 17.3 µM (inactive).

With `CSC1=NC=CCN1C`, the GI50 in the test with NCI-H226 is > 100 µM (inactive); with SNB-19 it was > 100 µM (inactive); in the test with SK-MEL-28, > 100 µM (inactive); in the test with OVCAR-4, > 100 µM (inactive); in the test on SK-OV-3 it was > 100 µM (inactive); in the test on HCT-15 it was greater than 100 µM. Besides, the GI50 in the test with SK-MEL-5, in the test on UACC-257, with HCT-116, in the test with SF-268, in the test with K562 and with 786-0 was > 100 µM (inactive) each time. Besides, the GI50 in the test with OVCAR-8 was > 100 µM (inactive).

Regarding `Sc1nnc(-c2ccccc2)n1/N=C\c1ccc(-c2ccc(Cl)cc2)o1`, the GI50 in the test on NCI-H226, in the test on SNB-19, with SF-539, in the test with SK-MEL-28, with OVCAR-4 and with SK-OV-3 was > 100 µM (inactive) in each case. In addition, the GI50 in the test on UACC-257, in the test with HOP-92, in the test on HCT-116, in the test with SF-268, with K562 and with 786-0 was > 100 µM (inactive) each time. The GI50 in the test on OVCAR-8 is > 100 µM (inactive).

On to `NC(=O)/N=C1\NC(Cc2ccccc2)C(=O)N1Cc1ccccc1` (configuration not stated), for which the GI50 in the test on NCI-H226, in the test with SNB-19, in the test with SF-539, with SK-MEL-28, with OVCAR-4 and in the test on SK-OV-3 was > 100 µM (inactive) in each case. Further, the GI50 was greater than 100 µM with HCT-15; > 100 µM (inactive) in the test with SK-MEL-5; > 100 µM (inactive) in the test with UACC-257; > 100 µM (inactive) in the test with HCT-116; > 100 µM (inactive) in the test with SF-268; > 100 µM (inactive) in the test on K562. Also, the GI50 in the test on 786-0 and in the test with OVCAR-8 was > 100 µM (inactive) in each case.

Consider `Cc1ccc2ccc(-c3ccccc3)c3c2c1C(=O)c1ccccc1C3=O`, for which the GI50 in the test with NCI-H226 is > 100 µM (inactive); with SNB-19, 64.1 µM (inactive); in the test on SF-539, 54.3 µM (inactive); in the test on SK-MEL-28 it was > 100 µM (inactive); in the test with SK-OV-3 it was 41.7 µM (inactive); in the test with SK-MEL-5 it was 53.6 µM (inactive). Also, the GI50 in the test with UACC-257 is > 100 µM (inactive); in the test with HOP-92 it was 26.1 µM (inactive); with HCT-116, > 100 µM (inactive); in the test on SF-268, 45.5 µM (inactive); in the test with K562 it was > 100 µM (inactive); in the test with 786-0, 36.5 µM (inactive). In the test with OVCAR-8, the GI50 is 72.4 µM (inactive).

On to `CCOc1cccc2cccnc12`, for which the GI50 with NCI-H226, in the test with SNB-19, with SF-539, in the test on SK-MEL-28, in the test with OVCAR-4 and with SK-OV-3 was > 100 µM (inactive) in each case. Also, the GI50 with SK-MEL-5, in the test with UACC-257, in the test on HOP-92, with HCT-116, in the test with SF-268 and in the test on K562 was > 100 µM (inactive) throughout. The GI50 in the test with 786-0 and with OVCAR-8 was > 100 µM (inactive) throughout.

Take `COc1cc(Nc2nc3cc(C(F)(F)F)ccc3nc2-c2ccccc2)cc(OC)c1OC`: the GI50 is > 100 µM (inactive) in the test with NCI-H226; 54.8 µM (inactive) in the test with SF-539; 49.7 µM (inactive) in the test with SK-MEL-28; 5.82 µM (inactive) in the test with OVCAR-4; 31.6 µM (inactive) with SK-OV-3; greater than 100 µM in the test with HCT-15. Also, the GI50 in the test on SK-MEL-5 was 34.4 µM (inactive); with UACC-257, 73.6 µM (inactive); in the test with HOP-92, 1.82 µM (inactive); with HCT-116 it was > 10 µM (inactive); with SF-268 it was > 100 µM (inactive); in the test on K562, > 100 µM (inactive). For the same compound, the GI50 is 40.7 µM (inactive) in the test on 786-0 and > 100 µM (inactive) with OVCAR-8.

Turning to `COc1ccc(/C(=C/n2ccnc2)C(O)c2ccc(OC)c(OC)c2)cc1OC` (configuration not stated), the GI50 was > 100 µM (inactive) in the test with NCI-H226; > 100 µM (inactive) with SNB-19; 78 µM (inactive) in the test with SF-539; > 100 µM (inactive) with SK-MEL-28; > 100 µM (inactive) in the test with OVCAR-4; > 100 µM (inactive) in the test on SK-OV-3. Moreover, the GI50 is greater than 100 µM in the test on HCT-15; > 100 µM (inactive) in the test on UACC-257; 30.6 µM (inactive) in the test on HOP-92; > 100 µM (inactive) in the test with SF-268; 37.2 µM (inactive) in the test with K562; > 100 µM (inactive) with 786-0. In addition, the GI50 with OVCAR-8 was > 100 µM (inactive).

For `CSC1CC2C(CC1(C)SC)C2(C)C` (configuration not stated), the GI50 in the test on NCI-H226 was 24.7 µM (inactive); in the test with SNB-19, 46.9 µM (inactive); in the test on SF-539, > 100 µM (inactive); in the test on SK-MEL-28, > 100 µM (inactive); in the test on OVCAR-4, 62.8 µM (inactive); in the test on SK-OV-3 it was 39.9 µM (inactive). The GI50 with HCT-15 is 51.3 µM; in the test with SK-MEL-5, 24.4 µM (inactive); in the test on UACC-257, 29.9 µM (inactive); in the test on HOP-92, 16.3 µM (inactive); with SF-268, > 100 µM (inactive); in the test on K562 it was 24.3 µM (inactive). Further, the results for the GI50 with 786-0 and with OVCAR-8 were 64.9 µM (inactive) and 39.5 µM (inactive), respectively.

Consider `CCCCCCCCCCCCCCCCc1c(C(=O)OC)[nH]c(=S)[nH]c1=O`, for which the GI50 in the test on SNB-19 is > 50 µM (inactive); in the test with SF-539, > 50 µM (inactive); with SK-MEL-28, > 50 µM (inactive); in the test with OVCAR-4, > 50 µM (inactive); in the test with SK-OV-3, > 50 µM (inactive); in the test with HCT-15, greater than 50 µM. Also, the GI50 was > 50 µM (inactive) with SK-MEL-5; > 50 µM (inactive) in the test with UACC-257; 12.1 µM (inactive) in the test with HOP-92; > 50 µM (inactive) in the test on HCT-116; > 50 µM (inactive) in the test on SF-268; > 50 µM (inactive) in the test with K562. The GI50 in the test on 786-0 and in the test on OVCAR-8 was > 50 µM (inactive) in each case.
